The values that follow come from ChEMBL document CHEMBL1129110, “O-alkylcarboxylate oxime and N-hydroxyurea analogs of substituted indole leukotriene biosynthesis inhibitors” (Bioorg Med Chem Lett, 1996).

Active and inactive are the calls of the source. No cut-off for these calls is given here.

Experiment [1] addresses T1, 5-lipoxygenase/FLAP (Homo sapiens, UniProt P09917+P20292).
T1 sequence (P09917 whole entry): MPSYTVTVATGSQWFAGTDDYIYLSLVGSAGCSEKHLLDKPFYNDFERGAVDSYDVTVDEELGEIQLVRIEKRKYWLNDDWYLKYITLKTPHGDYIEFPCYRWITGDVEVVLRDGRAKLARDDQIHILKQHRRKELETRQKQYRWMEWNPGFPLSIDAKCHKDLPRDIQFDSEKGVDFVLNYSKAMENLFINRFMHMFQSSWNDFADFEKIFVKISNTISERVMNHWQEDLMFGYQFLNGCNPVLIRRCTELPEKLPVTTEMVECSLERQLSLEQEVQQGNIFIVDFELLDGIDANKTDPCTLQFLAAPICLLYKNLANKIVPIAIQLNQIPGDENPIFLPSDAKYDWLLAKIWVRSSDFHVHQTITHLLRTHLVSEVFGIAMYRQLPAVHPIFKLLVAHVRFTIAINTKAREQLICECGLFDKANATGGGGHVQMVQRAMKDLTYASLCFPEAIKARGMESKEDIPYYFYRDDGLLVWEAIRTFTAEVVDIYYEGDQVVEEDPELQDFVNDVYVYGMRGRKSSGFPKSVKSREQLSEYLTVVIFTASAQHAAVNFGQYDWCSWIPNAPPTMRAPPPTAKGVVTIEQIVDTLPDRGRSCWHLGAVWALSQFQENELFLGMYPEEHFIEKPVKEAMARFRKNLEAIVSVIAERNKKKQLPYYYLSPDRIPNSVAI
T1 sequence (P20292 whole entry): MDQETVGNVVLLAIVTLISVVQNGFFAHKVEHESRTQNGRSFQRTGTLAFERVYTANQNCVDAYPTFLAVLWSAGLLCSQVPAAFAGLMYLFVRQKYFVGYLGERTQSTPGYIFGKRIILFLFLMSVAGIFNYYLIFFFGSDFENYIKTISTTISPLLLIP
The experiment can be described thus: Inhibition of calcium ionophore (A23187) stimulated LTB4 formation in human neutrophils. In kind it is functional.

The target of experiment [2] is T1, 5-lipoxygenase/FLAP. The experiment can be described thus: (§1) Human whole blood was stimulated with calcium ionophore (A23187) and LTB 4 measured by enzyme immunoassay. Format: functional, tissue-based.
Experiment [3] deals with Rattus norvegicus. The experiment is described as follows: Compound was tested in vivo against rat anaphylaxis in the peritoneal cavity. In kind it is functional.
The species entered for experiment [4] is Homo sapiens. The experiment can be described thus: Compound was tested for inhibition of calcium ionophore (A23187) stimulated LTB4 formation in human neutrophils at 100 nM. In kind it is functional.
For experiment [5], the system named is Rattus norvegicus. The experiment can be described thus: Compound was tested in vivo against rat anaphylaxis in the peritoneal cavity at concentration of 100 umol/kg; Not active. In kind it is functional, organism-based.
In experiment [6] the test system is Rattus norvegicus. The experiment can be described thus: Compound was tested in vivo against rat anaphylaxis in the peritoneal cavity at concentration of 1 umol/kg. Format: functional.
For experiment [7], the target named is T2, Polyunsaturated fatty acid 5-lipoxygenase (Rattus norvegicus, UniProt P12527).
T2 sequence (P12527 whole entry): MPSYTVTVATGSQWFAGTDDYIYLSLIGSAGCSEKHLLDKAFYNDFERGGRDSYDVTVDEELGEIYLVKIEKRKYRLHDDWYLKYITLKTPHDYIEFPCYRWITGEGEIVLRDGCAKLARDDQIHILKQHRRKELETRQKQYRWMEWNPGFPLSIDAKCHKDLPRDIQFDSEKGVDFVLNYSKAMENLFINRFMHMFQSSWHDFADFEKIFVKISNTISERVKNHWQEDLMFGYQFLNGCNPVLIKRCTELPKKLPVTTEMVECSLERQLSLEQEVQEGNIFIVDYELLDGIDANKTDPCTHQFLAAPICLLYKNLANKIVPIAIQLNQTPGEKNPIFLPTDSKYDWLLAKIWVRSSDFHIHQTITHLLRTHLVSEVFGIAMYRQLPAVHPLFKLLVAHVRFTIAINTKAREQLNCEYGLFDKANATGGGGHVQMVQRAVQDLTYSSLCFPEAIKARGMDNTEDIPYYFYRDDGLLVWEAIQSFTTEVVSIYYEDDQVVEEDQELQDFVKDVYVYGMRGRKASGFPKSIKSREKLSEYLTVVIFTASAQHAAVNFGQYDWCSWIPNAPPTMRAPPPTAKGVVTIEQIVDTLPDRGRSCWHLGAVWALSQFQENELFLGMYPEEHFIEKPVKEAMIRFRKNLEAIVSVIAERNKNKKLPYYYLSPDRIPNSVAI
The experiment is described as follows: Compound was tested for inhibition of 5-lipoxygenase activity in a broken cell supernatant rat basophilic leukemia cells.

The species entered for experiment [8] is Homo sapiens. The description is as §1. In kind it is functional.
The target of experiment [9] is T2, Polyunsaturated fatty acid 5-lipoxygenase. The experiment can be described thus: Compound was tested for inhibition of 5-lipoxygenase activity in a broken cell supernatant rat basophilic leukemia cells at concentration of 32 uM; Not active.
Experiment [10] shares this target. The experiment is described as follows: Compound was tested for inhibition of 5-lipoxygenase activity in a broken cell supernatant rat basophilic leukemia cells at concentration of 50 uM; Not active.
For experiment [11], the system named is Rattus norvegicus. The experiment can be described thus: Compound was tested in vivo against rat anaphylaxis in the peritoneal cavity; Not active. In kind it is functional, organism-based.
The subject of experiment [12] is Rattus norvegicus. The experiment is described as follows: Compound was tested in vivo against rat anaphylaxis in the peritoneal cavity at 60 umol/kg. In kind it is functional.
Experiment [13] deals with Rattus norvegicus. The experiment can be described thus: Compound was tested in vivo against rat anaphylaxis in the peritoneal cavity at concentration of 100 umol/kg. In kind it is functional.

By IC50 is commonly meant the point on the concentration scale where inhibition reaches its midpoint. One may read the ED50 as the dose that gives a 50% effect, or the effect in half of the subjects. Regarding `CC(C)(C)Sc1c(CC(C)(C)C(=O)O)n(Cc2ccc(Cl)cc2)c2ccc(OCc3ccc4ccccc4n3)cc12` [QUIFLAPON], the IC50 at 5-lipoxygenase/FLAP [1] turned out to be 8 nM; at 5-lipoxygenase/FLAP [2], 200 nM. The compound also displayed an ED50 in the experiment with Rattus norvegicus [3] of 1.6 µmol/kg.

What is called inhibition is the percentage by which the read-out fell short of the control. Consider `CC(C)(C)Sc1c(CC(C)(C)C(=O)O)n(Cc2ccc(Cl)cc2)c2ccc(OCc3ccncc3)cc12`, for which the inhibition at 0.1 µM in the experiment filed under Homo sapiens [4] is 100%. For the same compound, the IC50 on 5-lipoxygenase/FLAP [2] came to 840 nM. Moreover, the ED50 entry in the experiment with Rattus norvegicus [5] was “inactive”.

As usually defined, the inhibition in vivo is the share of the control response that was lost under treatment. Low readings indicate a response near the control, high ones a response far below the control. With `CC(C)(C)Sc1c(CC(C)(C)C(=O)O)n(Cc2ccc(Cl)cc2)c2ccc(OCc3nc4ccccc4s3)cc12`, the IC50 on 5-lipoxygenase/FLAP [1] came out at 10 nM; on 5-lipoxygenase/FLAP [2], 360 nM. For the same compound, in the experiment with Rattus norvegicus [6], the inhibition in vivo at 1 µmol/kg was 71%.

On to `CC(C)c1ccc2c(c1)c(SC(C)(C)C)c(CC(C)(C)CN(O)C(N)=O)n2Cc1ccc(Cl)cc1`, for which the values for the IC50 (at 5-lipoxygenase/FLAP [1]; at 5-lipoxygenase/FLAP [2]; in [7]) were 0.17 nM, 1600 nM and 7500 nM, respectively. Moreover, in the experiment with Rattus norvegicus [3], it took a dose of 46 µmol/kg to reach the 50% effect level (ED50).

The Inhibition is the percentage by which the read-out fell short of the control. On to `CC(C)(C)Sc1c(CC(C)(C)C(=O)O)n(Cc2ccc(Cl)cc2)c2ccc(OCc3nccs3)cc12`, for which the IC50 on 5-lipoxygenase/FLAP [1] was found to be 7 nM. Also, in the experiment on Rattus norvegicus [6], the inhibition in vivo at 1 µmol/kg stood at 16%. For the same compound, the Inhibition in the experiment filed under Homo sapiens [8] is reported as 41%.

As to `CC(C)c1ccc2c(c1)c(SC(C)(C)C)c(CC(C)(C)C(=O)O)n2Cc1ccc(Cl)cc1`, the IC50 result in experiment [9] is “Not Active”; on 5-lipoxygenase/FLAP [1], 0.03 nM; at 5-lipoxygenase/FLAP [2], 340 nM. In addition, the 50% effect level in the experiment with Rattus norvegicus [3] (ED50) was put at a dose of 16 µmol/kg.

For `CC(C)(C)Sc1c(CC(C)(C)C(=O)O)n(Cc2ccc(Cl)cc2)c2ccc(OCc3cscn3)cc12`, the IC50 was determined as 4 nM on 5-lipoxygenase/FLAP [1] and 40 nM on 5-lipoxygenase/FLAP [2]. It took a dose of 1.8 µmol/kg to reach the 50% effect level with Rattus norvegicus [3] (ED50).

Turning to `CC(C)c1ccc2c(c1)c(SC(C)(C)C)c(CC(C)(C)/C=N/OCC(=O)O)n2Cc1ccc(Cl)cc1`, the results for the IC50 at 5-lipoxygenase/FLAP [1] and on 5-lipoxygenase/FLAP [2] were 0.1 nM and 680 nM, respectively. Also, in the experiment on Rattus norvegicus [3], it took a dose of 3 µmol/kg to reach the 50% effect level (ED50).

Turning to `CC(C)c1ccc2c(c1)c(SC(C)(C)C)c(CC(C)(C)CNC(N)=O)n2Cc1ccc(Cl)cc1`, the results for the IC50 entry (in experiment [10]; at 5-lipoxygenase/FLAP [1]; at 5-lipoxygenase/FLAP [2]) were “Not Active”, 0.18 nM and 970 nM, respectively. For the same compound, in the experiment on Rattus norvegicus [3], it took a dose of 11 µmol/kg to reach the 50% effect level (ED50).

In the case of `CO/N=C/C(C)(C)Cc1c(SC(C)(C)C)c2cc(C(C)C)ccc2n1Cc1ccc(Cl)cc1`, the ED50 entry in the experiment on Rattus norvegicus [11] was “inactive”. The IC50 on 5-lipoxygenase/FLAP [1] stood at 0.34 nM; on 5-lipoxygenase/FLAP [2] it was 11000 nM.

For `CC(C)(C)Sc1c(CC(C)(C)C(=O)O)n(Cc2ccc(Cl)cc2)c2ccc(OCc3ccccn3)cc12`, the IC50 on 5-lipoxygenase/FLAP [2] worked out at 50 nM. Further, it took a dose of 0.16 µmol/kg to reach the 50% effect level with Rattus norvegicus [3] (ED50).

Take `CC(C)(/C=N/OCC(=O)O)Cc1c(SC(C)(C)C)c2cc(OCc3ccc4ccccc4n3)ccc2n1Cc1ccc(Cl)cc1`: the IC50 is 12 nM on 5-lipoxygenase/FLAP [1] and 600 nM on 5-lipoxygenase/FLAP [2]. This compound also showed an ED50 in the experiment with Rattus norvegicus [3] of 0.24 µmol/kg.

Turning to `CC(C)c1ccc2c(c1)c(SC(C)(C)C)c(CC(C)(C)NC(=O)N(C)O)n2Cc1ccc(Cl)cc1`, the values for the concentration for half-maximal inhibition (IC50) (at 5-lipoxygenase/FLAP [1]; on 5-lipoxygenase/FLAP [2]; in experiment [7]) were 0.15 nM, 1300 nM and 7500 nM, respectively. The compound further displayed an inhibition in vivo at 60 µmol/kg with Rattus norvegicus [12] of 49%.

Turning to `CC(C)(C)Sc1c(CC(C)(C)C(=O)O)n(Cc2ccc(Cl)cc2)c2ccc(OCc3cccnc3)cc12`, the IC50 at 5-lipoxygenase/FLAP [1] came out at 17 nM; on 5-lipoxygenase/FLAP [2], 1090 nM. Besides, the inhibition in vivo at 100 µmol/kg in the experiment on Rattus norvegicus [13] was determined as 4%.

On to `CC(C)c1ccc2c(c1)c(SC(C)(C)C)c(CC(C)(C)/C=N/O)n2Cc1ccc(Cl)cc1`, for which the figures for the IC50 at 5-lipoxygenase/FLAP [1] and on 5-lipoxygenase/FLAP [2] were 0.27 nM and 2200 nM, respectively. In addition, the inhibition in vivo at 100 µmol/kg with Rattus norvegicus [13] is 46%.

On to `CC(C)(/C=N/OCC(=O)O)Cc1c(SC(C)(C)C)c2cc(OCc3ccccn3)ccc2n1Cc1ccc(Cl)cc1`, for which the IC50 at 5-lipoxygenase/FLAP [1] turned out to be 13 nM; on 5-lipoxygenase/FLAP [2], 600 nM. In the experiment with Rattus norvegicus [3], it took a dose of 0.12 µmol/kg to reach the 50% effect level (ED50).

Take `CC(C)(C)Sc1c(CC(C)(C)C(=O)O)n(Cc2ccc(Cl)cc2)c2ccc(OCc3ccc4ccccc4c3)cc12`: the IC50 on 5-lipoxygenase/FLAP [1] was 12 nM; on 5-lipoxygenase/FLAP [2], 4420 nM. The ED50 entry in the experiment with Rattus norvegicus [5] was “inactive”.

For `CC(C)(/C=N/OCC(=O)O)Cc1c(SC(C)(C)C)c2cc(OCc3cscn3)ccc2n1Cc1ccc(Cl)cc1`, the half-inhibitory concentration (IC50) on 5-lipoxygenase/FLAP [1] is 11 nM; at 5-lipoxygenase/FLAP [2] it was 180 nM. This compound registered an ED50 with Rattus norvegicus [3] of 44 µmol/kg.

As for `CC(C)(C)Sc1c(CC(C)(C)C(=O)O)n(Cc2ccc(Cl)cc2)c2ccc(OCc3cccc(Cl)n3)cc12`, the IC50 at 5-lipoxygenase/FLAP [1] amounted to 17 nM; on 5-lipoxygenase/FLAP [2] it was 110 nM. Moreover, the 50% effect level with Rattus norvegicus [3] (ED50) was put at a dose of 1.2 µmol/kg.

In the case of `CC(C)(/C=N/OCC(=O)O)Cc1c(SC(C)(C)C)c2cc(OCc3cccc(Cl)n3)ccc2n1Cc1ccc(Cl)cc1`, the IC50 on 5-lipoxygenase/FLAP [1] is 10 nM; at 5-lipoxygenase/FLAP [2] it was 230 nM. In addition, the 50% effect level in the experiment with Rattus norvegicus [3] (ED50) was put at a dose of 2.6 µmol/kg.
